In patent US4518588A, “Process for the preparation of an inclusion complex of N-(1--phenylethyl)-3,3-diphenylpropylamine and the hydrochloride thereof respectively with cyclodextrin” (priority 1981, dated 1985):
Where “and” joins values, the source holds several entries; their conditions need not be identical. Equal values may be shown once. Read-outs that look alike come from different tables or passages of the source.

Tests used:
Thermoanalytical assay = format: physicochemical
Procedure: Thermoanalytical assay of the product according to Example 1.
Phendiline starts to evaporate respectively to decompose at 150° C. and 98% mass change can be observed up to 250° C.

[1] = Resorption tests on Sartorius SM 16750 Resorption model, diffusion and resorption rate constants; format: in vitro ADME; settings: in vitro; for diffusion constant (Kd) from the intestine: resorption from the intestine
Procedure: (§1) The in vitro tests were justified by the fact that the measurements are much more reproducible than by carrying out the tests in vivo.
The resorption tests were performed on a Sartorius SM 16750 Resorption model, the membranes used were suitable for modelling the resorption from the stomach and from the intestine. On the basis of the test results the diffusion (Kd) and the resorption rate constant (Ki) were calculated for the test substances.

Acute toxicity = settings: mouse, in vivo, dose as phendiline active ingredient, 5% Tween 80; for LD50 at 24 h: observation time 24 hours
Solubility in words = format: physicochemical
[2] = Determination of dissolved (MG) and resorbed (Mi) active ingredient on Sartorius SM 16751 type model; format: in vitro ADME; settings: 100. minute; segments of the gastro-intestinal system, in vitro; FIG. 1
From the text: as §1
The dissolution and the resorption are subsequent processes which depend greatly on each other. Under physiological conditions resorption is partially influenced by the pH relations at the place of the resorption and partially by the time spent by the pharmaceutical at the place of the resorption.
The average spent time in each segment of the gastro-intestinal system and the pH values are as follows:
The determination of the dissolved (MG) and the resorbed (Mi) active ingredient was performed on a Sartorius SM 16751 type Lose model [H. Stricker: Pharm. Ind. 33, 157 (1971); H. Sticker: Drugs in Germany 14, 93 (1971)].
The amount of the resorbed phendiline, phendiline-CD-complex as well as phendiline hydrochloride and phendiline-hydrochloride-CD-complex from the gastro-intestinal tract is shown in FIG. 2 where F stands for the resorbed amount of phendiline, F-CD stands for the resorbed amount of phendiline-cyclodextrine-complex, FHCl stands for the resorbed amount of phendiline-hydrochloride and FHCl-CD stands for the resorbed amount of phendiline-hydrochloride-cyclodextrine-complex.

[3] = Solubility of phendiline hydrochloride in β-cyclodextrin solutions of various concentration; format: physicochemical; settings: 37° C.; for solubility thermodynamic at 3 h: water with beta-cyclodextrin, phendiline equivalents; for β-cyclodextrin mmole / phendiline mmole: 3 hours
Procedure: 0.22 g. (0.6 mmole) of phendiline hydrochloride is stirred at 37° C. for 3 hours in 3 ml. of water and in β-cyclodextrin solutions of various concentration by a magnetic stirrer at 150 rot./min rate. The concentration of the dissolved phendiline hydrochloride is determined by spectrophotometry and expressed in phendiline equivalents.

[4] = β-cyclodextrin 15 mg./ml. (13.2 mmole/l.)
[5] = β-cyclodextrin 20 mg./ml. (17.6 mmole/l.)
[6] = β-cyclodextrin 25 mg./ml. (22.0 mmole/l.)
[7] = β-cyclodextrin 30 mg./ml. (26.4 mmole/l.)

## β-cyclodextrin
Thermoanalytical assay; thermoanalytical assay
  temperature of melting with decomposition: 300 °C

## Cyclodextrin
Thermoanalytical assay; thermoanalytical assay
  decomposition temperature: 270 °C

## CC(NCCC(c1ccccc1)c1ccccc1)c1ccccc1 (stereo not drawn) [phendiline, N-(1-phenylethyl)-3,3-diphenylpropylamine]
Thermoanalytical assay; thermoanalytical assay
  temperature at which it starts to evaporate respectively to decompose: 150 °C
Thermoanalytical assay; up to 250° C.
  mass change: 98%
[1]
  resorption rate constant (Ki) from the intestine: 0.0051 min⁻¹
  diffusion constant (Kd) from the intestine: 6.9 × 10^-4 cm^2 min^-1
Acute toxicity; ip, intraperitoneal
  LD50 at 24 h: 47.5 mg/kg
Acute toxicity; po, per os, observation time 72 hours
  LD50 at 72 h: 512 mg/kg
Solubility in words
  solubility in water: very poor
Solubility in words; listed as Phendiline
  solubility in water: not soluble in water
[2]
  amount dissolved: 75 mg

## CC(NCCC(c1ccccc1)c1ccccc1)c1ccccc1.Cl (stereo not drawn) [phendiline hydrochloride, N-(1-phenylethyl)-3,3-diphenylpropylamine hydrochloride]
[3]; [4]
  solubility thermodynamic at 3 h: 4390 µg/mL and 13900 µM
  β-cyclodextrin mmole / phendiline mmole: 0.95
[3]; [5]
  solubility thermodynamic at 3 h: 5950 µg/mL and 18600 µM
  β-cyclodextrin mmole / phendiline mmole: 0.95
[3]; [6]
  solubility thermodynamic at 3 h: 6940 µg/mL and 22000 µM
  β-cyclodextrin mmole / phendiline mmole: 1.00
[3]; [7]
  solubility thermodynamic at 3 h: 7510 µg/mL and 23800 µM
  β-cyclodextrin mmole / phendiline mmole: 1.10
[1]
  resorption rate constant (Ki) from the intestine: 0.0049 min⁻¹
  diffusion constant (Kd) from the intestine: 6.7 × 10^-4 cm^2 min^-1
Acute toxicity; ip, intraperitoneal, observation time 1 hour
  LD50 at 1 h: 81.1 mg/kg
Acute toxicity; po, per os
  LD50 at 24 h: 522 mg/kg
Solubility in words
  solubility in water: extremely poor
